Patent publication US6355640B1, “Pyrazolopyridine adenosine antagonists” (Fujisawa Pharmaceutical Co., Ltd., priority 1993, dated 2002)

O=c1ccc(-c2c(-c3ccccc3)nn3ccccc23)nn1C1CCCCC1=Cc1nnn[nH]1 (stereo not shown) [Example 111, 3-[2-{2-(1H-tetrazol-5-yl)methylenecyclohexyl}-3-oxo-2,3-dihydropyridazin-6-yl]-2-phenylpyrazolo[1,5-a]pyridine]
melting point: 129 to 131 °C

COc1ccccc1-n1nc(-c2c(-c3ccccc3)nn3ccccc23)ccc1=O [Example 101, 3-[2-(2-Methoxyphenyl)-3-oxo-2,3-dihydropyridazin-6-yl]-2-phenylpyrazolo[1,5-a]pyridine]
melting point: 163 °C

O=C(O)CNC(=O)CC1=C(n2nc(-c3c(-c4ccccc4)nn4ccccc34)ccc2=O)CCCC1 [Example 55, 3-[2-{2-(N-Carboxymethylcarbamoyl)methyl-1-cyclohexenyl}-3-oxo-2,3-dihydropyridazin-6-yl]-2-phenylpyrazolo[1,5-a]pyridine]
melting point: 190 to 192 °C

O=C(O)[C@H]1CCC[C@H](n2nc(-c3c(-c4ccccc4)nn4ccccc34)ccc2=O)C1 (relative stereo) [Example 41, trans-3-(2-(3-Carboxycyclohexyl)-3-oxo-2,3-dihydropyridazin-6-yl]-2-phenylpyrazolo[1,5-a]pyridine]
melting point: 218 to 222 °C

CC1CC(C)(C)N=C(/C=C2\CCCCC2n2nc(-c3c(-c4ccccc4)nn4ccccc34)ccc2=O)O1 (stereo not shown) [Example 97(1), (E)-3-[2-{2-(4,4,6-Trimethyl-5,6-dihydro-4H-1,3-oxazin-2-yl)methylenecyclohexyl}-3-oxo-2,3-dihydropyridazin-6-yl]-2-phenylpyrazolo[1,5-a]pyridine]
melting point: 156 to 158 °C

O=C1CCCCC1n1nc(-c2c(-c3ccccc3)nn3ccccc23)ccc1=O (single isomer, unassigned) [Example 2 (more polar compound), 3-[2-(2-oxocyclohexyl)-3-oxo-2,3-dihydropyridazin-6-yl]-2-phenylpyrazolo[1,5-a]pyridine]
melting point: 166 to 168 °C

C=C1CCCCC1n1nc(-c2c(-c3ccccc3)nn3ccccc23)ccc1=O (stereo not shown) [Example 93, 3-[2-(2-methylenecyclohexyl)-3-oxo-2,3-dihydropyridazin-6-yl]-2-phenylpyrazolo[1,5-a]pyridine]
melting point: 229 to 230 °C (dec.)

N#C/C=C1/CCCCC1n1nc(-c2c(-c3ccccc3)nn3ccccc23)ccc1=O (stereo not drawn) [Example 96 (Z)-isomer, (Z)-3-[2-{2-Cyanomethylenecyclohexyl}-3-oxo-2,3-dihydropyridazin-6-yl]-2-phenylpyrazolo[1,5-a]pyridine]
melting point: 70 to 72 °C

CCOC(=O)[C@H]1CCC(=O)[C@@H](n2nc(-c3c(-c4ccccc4)nn4ccccc34)ccc2=O)C1 (relative stereo) [Example 16, cis-3-[2-(5-Ethoxycarbonyl-2-oxocyclohexyl)-3-oxo-2,3-dihydropyridazin-6-yl]-2-phenylpyrazolo[1,5-a]pyridine]
melting point: 160 to 162 °C

O=C(O)CON=C1CCCCC1n1nc(-c2c(-c3ccccc3)nn3ccccc23)ccc1=O (stereo not shown) [Example 57, 3-[2-(2-Carboxymethoxyiminocyclohexyl)-3-oxo-2,3-dihydropyridazin-6-yl]-2-phenylpyrazolo[1,5-a]pyridine]
melting point: 208 °C (dec.)

COC(=O)C[C@H]1CC[C@H](n2nc(-c3c(-c4ccccc4)nn4ccccc34)ccc2=O)C1 (relative stereo) [Example 32, trans-3-[2-(3-Methoxycarbonylmethylcyclopentyl)-3-oxo-2,3-dihydropyridazin-6-yl]-2-phenylpyrazolo[1,5-a]-pyridine]
melting point: 105 to 107 °C

O=C(CC1=C(n2nc(-c3c(-c4ccccc4)nn4ccccc34)ccc2=O)CCCC1)N1CCN(C(c2ccccc2)(c2ccccc2)c2ccccc2)CC1 [Example 82, 3-[2-{2-(4-Triphenylmethylpiperazin-1-ylcarbonyl)methyl-1-cyclohexenyl}-3-oxo-2,3-dihydropyridazin-6-yl]-2-phenylpyrazolo[1,5-a]pyridine]
melting point: 249.5 to 250.5 °C

CNC1CCN(C(=O)CC2=C(n3nc(-c4c(-c5ccccc5)nn5ccccc45)ccc3=O)CCCC2)CC1 (hydrate or solvate) [Example 86, 3-[2-{2-(4-Methylaminopiperidinocarbonyl)methyl-1-cyclohexenyl}-3-oxo-2,3-dihydropyridazin-6-yl]-2-phenylpyrazolo[1,5-a]pyridine]
melting point: 101 to 105 °C

CCOC(=O)C[C@@H]1CCCC[C@H]1n1nc(-c2c(-c3ccccc3)nn3ccccc23)ccc1=O (relative stereo) [Example 33(1), trans-3-[2-(2-Ethoxycarbonylmethylcyclohexyl)-3-oxo-2,3-dihydropyridazin-6-yl]-2-phenylpyrazolo[1,5-a]-pyridine]
melting point: 172 to 173 °C

O=C(CC1=C(n2nc(-c3c(-c4ccccc4)nn4ccccc34)ccc2=O)CCCC1)N1CCNCC1 [Example 113, 3-[2-{2-(piperazin-1-ylcarbonyl)methyl-1-cyclohexenyl}-3-oxo-2,3-dihydropyridazin-6-yl]-2-phenylpyrazolo[1,5-a]pyridine]
melting point: 208.5 to 209 °C

COC(=O)[C@H]1CC[C@@H](n2nc(-c3c(-c4ccccc4)nn4ccccc34)ccc2=O)[C@H](O)C1 (relative stereo) [Example 8, 3-[2-{(1R*,2R*,4S*)-2-Hydroxy-4-methoxycarbonyl-cyclohexyl}-3-oxo-2,3-dihydropyridazin-6-yl]-2-phenylpyrazolo[1,5-a]pyridine]
melting point: 169 to 172 °C

CN(C)C(=O)CC1=C(n2nc(-c3c(-c4ccccc4)nn4ccccc34)ccc2=O)CCCC1 [Example 71, 3-[2-{2-(N,N-Dimethylcarbamoyl)methyl-1-cyclohexenyl}-3-oxo-2,3-dihydropyridazin-6-yl]-2-phenylpyrazolo[1,5-a]pyridine]
melting point: 80 to 81 °C

O=c1ccc(-c2c(-c3ccccc3)nn3ccccc23)nn1C1CCCC(O)C1 (stereo not shown) [Example 104, 3-[2-(3-hydroxycyclohexyl)-3-oxo-2,3-dihydropyridazin-6-yl]-2-phenylpyrazolo[1,5-a]pyridine]
melting point: 117 to 118 °C

CCCn1c(-n2nc(-c3c(-c4ccccc4)nn4ccccc34)ccc2=O)cc(=O)n(CC(=O)OC)c1=O [Example 29, 3-[2-(2,4-Dioxo-3-methoxycarbonylmethyl-1-propyl-1,2,3,4-tetrahydropyrimidin-6-yl)-3-oxo-2,3-dihydropyridazin-6-yl]-2-phenylpyrazolo[1,5-a]pyridine]
melting point: 191 to 195 °C

O=C(O)C=C1CCC(n2nc(-c3c(-c4ccccc4)nn4ccccc34)ccc2=O)CC1 (stereo not shown) [Example 51, 3-[2-(4-Carboxymethylenecyclohexyl)-3-oxo-2,3-dihydropyridazin-6-yl]-2-phenylpyrazolo[1,5-a]pyridine]
melting point: 188 to 190 °C

O=C(O)CCC1=C(n2nc(-c3c(-c4ccccc4)nn4ccccc34)ccc2=O)CCCC1 [Example 52, 3-[2-{2-(2-carboxyethyl)-1-cyclohexenyl}-3-oxo-2,3-dihydropyridazin-6-yl]-2-phenylpyrazolo[1,5-a]-pyridine]
melting point: 184 to 185 °C

CN(CC(=O)O)C(=O)CC1=C(n2nc(-c3c(-c4ccccc4)nn4ccccc34)ccc2=O)CCCC1 [Example 43, 3-[2-{2-(N-carboxymethyl-N-methylcarbamoyl)methyl-1-cyclohexenyl}-3-oxo-2,3-dihydropyridazin-6-yl]-2-phenylpyrazolo[1,5-a]pyridine]
melting point: 135 to 138 °C
